The source of these data is patent publication US9730943B2, “Alkoxy-substituted 2,3-dihydroimidazo[1,2-C]quinazolines” (BAYER INTELLECTUAL PROPERTY GMBH, priority 2010, dated 2017).

Assay [1] deals with T1, PI3Kα (Homo sapiens, UniProt P42336).
T1 construct: N-terminal His6-tagged recombinant full-length human p110α; His6 (N); purchased Millipore 14-602; host or cells: baculovirus infected Sf21 insect cells
As to the kind of experiment: PI3Kα kinase assay (HTRF-based PI3K inhibition assay). It is filed as biochemical. The note with it: for inhibition at 0.93 µM: 0.93 μM compound, read-out: PI3K alpha average % Inhibition at 0.93 μM; for IC50: complex of human p110α and human p85α, 10 μM ATP, 10 μM PIP2, read-out: average IC50 in the PI3K alpha biochemical assay. An excerpt: Determination of % Inhibition and IC50 Values of Compounds in PI3Kα Kinase Assay
PI3Kα inhibitory activity of compounds of the present invention was quantified employing the HTRF-based PI3K inhibition assay as described below.
(§1) As reagents for the kinase reaction itself and the quantification of the reaction product, the PI3-Kinase HTRF Assay kit from Millipore (#33-017) was used. With this kit the phosphatidylinositol 3,4,5-trisphosphate (PIP3) generated in the kinase reaction is detected by displacement of a biotinylated ligand from an energy transfer complex consisting of a Europium-labeled anti-GST monoclonal antibody, a GST-tagged PH domain, biotinylated PIP3 and Streptavidin-Allophycocyanin (APC).
(§2) For the assay 50 nL of a 80-fold concentrated solution of the test compound in DMSO was pipetted into a black low volume 384-well microtiter plate (Greiner Bio-One, Frickenhausen, Germany), 3 μL of a solution of PI3Kα and phosphatidylinositol-4,5-bisphosphate (PIP2, 13.8 μM=>final conc. in 4 μl reaction volume=10 μM) in 1× reaction buffer (exact composition not disclosed by the vendor) were added and the mixture was incubated for 15 min at 22° C. to allow pre-binding of the test compounds to the enzyme before the start of the kinase reaction. The amount of PI3Kα was chosen to have the enzyme reaction in the linear range and depended on the activity of the individual lot, typical concentrations in assay were in the range of 90 ng/mL. Then the kinase reaction was started by the addition of 1 μL of a solution of adenosine triphosphate (ATP, 40 μM=>final conc. in the 4 μL assay volume is 10 μM) in reaction buffer and the resulting mixture was incubated for a reaction time of 20 min at 22° C.
The reaction was stopped by the addition of 1 μL of an stop solution (containing the biotinylated PIP3 used as a tracer), then 1 μL detection mix (containing a Europium-labeled anti-GST monoclonal antibody, a GST-tagged PH domain, and Streptavidin-Allophycocyanin) was added and resulting mixture was incubated 3 h at 22° C. to allow the formation of complexes between the detection reagents and either the PIP3 generated in the kinase reaction, or the biotinylated PIP3 added with the stop solution. Subsequently, the amount of energy transfer complex consisting of a Europium-labeled anti-GST monoclonal antibody, a GST-tagged PH domain, biotinylated PIP3 and Streptavidin-Allophycocyanin (APC) was evaluated by measurement of the resonance energy transfer from the Europium-labeled anti-GST monoclonal antibody to the Streptavidin-Allophycocyanin. Therefore, the fluorescence emissions at 620 nm and 665 nm after excitation at 350 nm were measured using a TR-FRET reader, e.g., a Pherastar (BMG Labtechnologies, Offenburg, Germany) or a Viewlux (Perkin-Elmer). The ratio of the emissions at 665 nm and at […] was taken as the measure for the amount of biotinylated PIP3 bound to the GST-tagged PH domain, which is negatively correlated with the amount of PIP3 generated. […] Normally test compounds were tested on the same microtiter plate at 10 different concentrations in the range of 25 μM to 1.3 nM (25 μM, 8.3 μM, 2.8 μM, 0.93 μM, 0.31 μM, 103 nM, 34 nM, 11 nM, 3.8 nM and 1.3 nM, a dilution series prepared before the assay at the level of the 80-fold conc. stock solutions by serial 1:3 dilutions) in duplicate values for each concentration and […] values were calculated by a 4-parameter fit using in-house software.

For assay [2], the target named is T2, PI3Kβ (Homo sapiens, UniProt P42338).
T2 construct: N-terminal His6-tagged recombinant full-length human p110β; His6 (N); purchased Millipore 14-603; host or cells: baculovirus infected Sf21 insect cells
T2 sequence (P42338 whole entry): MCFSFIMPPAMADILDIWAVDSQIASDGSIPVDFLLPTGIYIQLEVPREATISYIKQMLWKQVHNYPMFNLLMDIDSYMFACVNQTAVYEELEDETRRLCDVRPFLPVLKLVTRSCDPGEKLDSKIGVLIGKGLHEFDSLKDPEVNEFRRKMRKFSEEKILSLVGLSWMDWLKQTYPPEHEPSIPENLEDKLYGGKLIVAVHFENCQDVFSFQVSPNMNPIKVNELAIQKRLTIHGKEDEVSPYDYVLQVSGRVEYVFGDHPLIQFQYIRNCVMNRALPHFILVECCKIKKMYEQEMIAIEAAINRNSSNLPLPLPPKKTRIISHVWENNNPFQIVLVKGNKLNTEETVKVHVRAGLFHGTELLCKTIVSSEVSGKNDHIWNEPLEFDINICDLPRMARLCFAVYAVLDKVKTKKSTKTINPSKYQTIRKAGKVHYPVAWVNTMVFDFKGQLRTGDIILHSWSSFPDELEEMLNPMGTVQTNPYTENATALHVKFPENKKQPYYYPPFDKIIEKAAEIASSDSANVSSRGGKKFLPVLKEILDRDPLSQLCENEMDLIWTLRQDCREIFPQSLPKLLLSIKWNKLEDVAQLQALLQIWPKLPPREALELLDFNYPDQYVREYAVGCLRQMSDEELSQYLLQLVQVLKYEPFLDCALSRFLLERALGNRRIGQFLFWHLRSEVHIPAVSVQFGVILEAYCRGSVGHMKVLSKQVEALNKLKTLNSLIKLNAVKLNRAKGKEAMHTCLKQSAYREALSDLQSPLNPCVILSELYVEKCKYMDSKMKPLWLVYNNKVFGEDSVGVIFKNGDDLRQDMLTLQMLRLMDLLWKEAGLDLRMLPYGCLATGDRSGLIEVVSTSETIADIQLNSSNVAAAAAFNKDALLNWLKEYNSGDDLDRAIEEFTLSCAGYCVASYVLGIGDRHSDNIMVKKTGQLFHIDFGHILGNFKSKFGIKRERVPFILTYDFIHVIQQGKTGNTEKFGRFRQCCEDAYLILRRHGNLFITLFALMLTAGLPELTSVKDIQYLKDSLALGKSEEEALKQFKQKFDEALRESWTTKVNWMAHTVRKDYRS
T2 sequence (P27986 whole entry partner): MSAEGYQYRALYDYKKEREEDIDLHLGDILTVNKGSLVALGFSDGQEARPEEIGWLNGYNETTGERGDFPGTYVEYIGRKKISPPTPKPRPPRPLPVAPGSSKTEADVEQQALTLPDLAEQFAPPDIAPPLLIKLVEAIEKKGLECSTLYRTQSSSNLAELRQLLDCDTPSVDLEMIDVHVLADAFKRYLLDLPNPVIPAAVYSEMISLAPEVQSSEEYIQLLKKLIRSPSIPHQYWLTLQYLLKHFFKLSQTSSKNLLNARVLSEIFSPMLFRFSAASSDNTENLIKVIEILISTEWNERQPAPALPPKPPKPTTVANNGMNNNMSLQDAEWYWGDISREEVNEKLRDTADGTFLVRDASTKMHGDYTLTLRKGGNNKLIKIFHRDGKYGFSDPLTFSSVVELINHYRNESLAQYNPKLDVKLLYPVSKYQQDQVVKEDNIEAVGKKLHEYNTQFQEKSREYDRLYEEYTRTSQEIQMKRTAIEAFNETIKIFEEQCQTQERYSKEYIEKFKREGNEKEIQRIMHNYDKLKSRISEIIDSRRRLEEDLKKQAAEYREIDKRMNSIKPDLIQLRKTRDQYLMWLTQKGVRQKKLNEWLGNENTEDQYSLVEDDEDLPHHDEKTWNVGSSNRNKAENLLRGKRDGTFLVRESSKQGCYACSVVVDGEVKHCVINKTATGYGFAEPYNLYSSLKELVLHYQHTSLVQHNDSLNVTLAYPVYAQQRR
As to the kind of experiment: PI3Kβ kinase assay (HTRF based PI3K inhibition assay). The note with it: for inhibition at 0.93 µM: 0.93 μM compound, read-out: PI3K beta average % Inhibition at 0.93 μM; for IC50: complex of human p110β and human p85α, 10 μM ATP, 10 μM PIP2, read-out: average IC50 in the PI3K beta biochemical assay; for PI3K beta average IC50/ PI3K alpha average IC50: ratio of PI3K beta IC50 to PI3K alpha IC50 (A2 and A1). The assay is classed as biochemical.
Excerpt: Determination of % Inhibition and IC50 Values of Compounds in PI3Kβ Kinase Assay
PI3Kβ inhibitory activity of compounds of the present invention was quantified employing the HTRF based PI3K inhibition assay as described below.
as §1
as §2, with “3 μl” for “3 μL”, “of PI3Kβ” for “of PI3Kα”, “of 120” for “of 90”, “4 μl” for “4 μL”
The reaction was stopped by the addition of 1 μL of an stop solution (containing the biotinylated PIP3 used as a tracer). Then 1 μL detection mix (containing a Europium-labeled anti-GST monoclonal antibody, a GST-tagged PH domain, and Streptavidin-Allophycocyanin) was added and resulting mixture was incubated for 3 h at 22° C. to allow the formation of complexes between the detection reagents and either the PIP3 generated in the kinase reaction, or the biotinylated PIP3 added with the stop solution. Subsequently the amount of energy transfer complex consisting of a Europium-labeled anti-GST monoclonal antibody, a GST-tagged PH domain, biotinylated PIP3 and Streptavidin-Allophycocyanin (APC) was evaluated by measurement of the resonance energy transfer from the Europium-labeled anti-GST monoclonal antibody to the Streptavidin-Allophycocyanin. Therefore, the fluorescence emissions at 620 nm and 665 nm after excitation at 350 nm were measured using a TR-FRET reader, e.g., a Pherastar (BMG Labtechnologies, Offenburg, Germany) or a Viewlux (Perkin-Elmer). The ratio of the emissions at 665 nm and at […] were taken as the measure for the amount of biotinylated PIP3 bound to the GST-tagged PH domain, which is negatively correlated with the amount of PIP3 generated.
On the technique in general: TR-FRET usually uses a lanthanide donor and a delayed reading to cut background.

T1 sequence (P42336 whole entry): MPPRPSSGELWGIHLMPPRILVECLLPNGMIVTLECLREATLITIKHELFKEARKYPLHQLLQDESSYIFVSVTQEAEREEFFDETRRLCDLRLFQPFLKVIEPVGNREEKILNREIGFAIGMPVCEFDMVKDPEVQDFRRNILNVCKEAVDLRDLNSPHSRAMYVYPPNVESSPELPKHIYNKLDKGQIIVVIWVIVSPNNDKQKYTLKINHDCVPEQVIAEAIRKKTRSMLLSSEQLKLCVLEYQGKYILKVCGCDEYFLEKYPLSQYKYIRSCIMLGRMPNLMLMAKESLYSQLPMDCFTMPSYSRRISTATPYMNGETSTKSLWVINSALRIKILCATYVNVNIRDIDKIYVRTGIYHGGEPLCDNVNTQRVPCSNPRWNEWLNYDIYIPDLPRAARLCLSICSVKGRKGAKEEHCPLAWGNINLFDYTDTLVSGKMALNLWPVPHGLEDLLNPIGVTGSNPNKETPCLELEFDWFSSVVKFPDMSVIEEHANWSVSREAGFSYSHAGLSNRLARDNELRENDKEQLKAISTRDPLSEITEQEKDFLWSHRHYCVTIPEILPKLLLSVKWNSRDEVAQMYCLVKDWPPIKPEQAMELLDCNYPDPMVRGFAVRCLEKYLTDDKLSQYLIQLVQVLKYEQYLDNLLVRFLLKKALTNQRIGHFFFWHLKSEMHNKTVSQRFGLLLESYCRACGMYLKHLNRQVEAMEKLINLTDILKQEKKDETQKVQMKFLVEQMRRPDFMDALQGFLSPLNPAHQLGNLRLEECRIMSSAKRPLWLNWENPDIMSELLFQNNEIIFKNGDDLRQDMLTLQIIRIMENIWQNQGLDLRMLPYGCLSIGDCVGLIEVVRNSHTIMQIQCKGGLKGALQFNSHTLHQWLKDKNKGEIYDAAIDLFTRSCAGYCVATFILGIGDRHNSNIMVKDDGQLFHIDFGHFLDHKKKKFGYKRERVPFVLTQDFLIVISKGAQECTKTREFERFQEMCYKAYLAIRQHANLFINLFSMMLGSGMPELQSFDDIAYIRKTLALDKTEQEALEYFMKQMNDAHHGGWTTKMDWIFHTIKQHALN
T1 sequence (P27986 whole entry partner): as the sequence (P27986 whole entry partner) above

For the molecule `C[C@@H]1CN(C[C@@H](O)COc2ccc3c(c2OCCc2ccc(F)cc2)N=C(NC(=O)c2cccnc2)N2CCN=C32)C[C@H](C)O1` [Example 8, N-{8-({(2R)-3-[(2R,6S)-2,6-Dimethylmorpholin-4-yl]-2-hydroxypropyl}oxy)-7-[2-(4-fluorophenyl)ethoxy]-2,3-dihydroimidazo[1,2-c]quinazolin-5-yl}pyridine-3-carboxamide], in assay [1], the inhibition at 0.93 µM was 99.9% and the IC50 fell in the range of 10 to 50 nM. Also, in assay [2], the inhibition at 0.93 µM turned out to be 96.7%, the IC50 fell in the range of 10 to 50 nM and the “PI3K beta average IC50/ PI3K alpha average IC50” value turned out to be 2.28.
In the case of `CC(C)N(C[C@@H](O)COc1ccc2c(c1OCCc1ccc(F)cc1)N=C(NC(=O)c1cccnc1)N1CCN=C21)C(C)C` [Example 7, N-(8-{[(2R)-3-(dipropan-2-ylamino)-2-hydroxypropyl]oxy}-7-[2-(4-fluorophenyl)ethoxy]-2,3-dihydroimidazo[1,2-c]quinazolin-5-yl)pyridine-3-carboxamide], in assay [1], the inhibition at 0.93 µM is 91.5% and the IC50 was < 10 nM. Besides, in assay [2], the inhibition at 0.93 µM is 90%, the IC50 was 10 to 50 nM and the “PI3K beta average IC50/ PI3K alpha average IC50” value is recorded as 2.78.
In the same order, the values of `C[C@@H]1CN(C[C@@](C)(O)COc2ccc3c(c2OCCc2ccc(F)cc2)N=C(NC(=O)c2cccnc2)N2CCN=C32)C[C@H](C)O1` (relative stereo) [Example 12, rel-N-{8-({(2R)-3-[(2R,6S)-2,6-Dimethylmorpholin-4-yl]-2-hydroxy-2-methylpropyl}oxy)-7-[2-(4-fluorophenyl)ethoxy]-2,3-dihydroimidazo[1,2-c]quinazolin-5-yl}pyridine-3-carboxamide] are 104%, 10 to 50 nM, 100%, > 50 nM and 3.69.
In the case of `O=C(NC1=Nc2c(ccc(OCC(O)CN3CCOCC3)c2OCCc2ccc(F)cc2)C2=NCCN12)c1cccnc1` (stereo not shown) [Example 9, N-{7-[2-(4-Fluorophenyl)ethoxy]-8-[2-hydroxy-3-(morpholin-4-yl)propoxy]-2,3-dihydroimidazo[1,2-c]quinazolin-5-yl}pyridine-3-carboxamide], in assay [1], the inhibition at 0.93 µM is 98.8% and the IC50 lay in the range of 10 to 50 nM. Also, in assay [2], the inhibition at 0.93 µM turned out to be 102%, the IC50 was < 10 nM and the “PI3K beta average IC50/ PI3K alpha average IC50” value came out at 0.63.
In the same order, the values of `C[C@@H]1CN(C[C@@](C)(O)COc2ccc3c(c2OCCc2ccc(F)cc2)N=C(NC(=O)c2cnc(N)nc2)N2CCN=C32)C[C@H](C)O1` (relative stereo) [Example 11, rel-2-Amino-N-{8-({(2R)-3-[(2R,6S)-2,6-dimethylmorpholin-4-yl]-2-hydroxy-2-methylpropyl}oxy)-7-[2-(4-fluorophenyl)ethoxy]-2,3-dihydroimidazo[1,2-c]quinazolin-5-yl}pyrimidine-5-carboxamide] are 109%, < 10 nM, 95.3%, 10 to 50 nM and 9.66.
In the case of `COc1c(OC[C@H](O)CN2CCOCC2)ccc2c1N=C(NC(=O)c1cccnc1)N1CCN=C21` [Example 2, N-(8-{[(2R)-2-hydroxy-3-(morpholin-4-yl)propyl]oxy}-7-methoxy-2,3-dihydroimidazo[1,2-c]quinazolin-5-yl)pyridine-3-carboxamide], the inhibition at 0.93 µM in assay [2] was determined as 94.4%.
Turning to `COc1c(OC[C@](C)(O)CN2C[C@@H](C)O[C@@H](C)C2)ccc2c1N=C(NC(=O)c1cccnc1)N1CCN=C21` (relative stereo) [Example 10, rel-N-[8-({(2R)-3-[(2R,6S)-2,6-Dimethylmorpholin-4-yl]-2-hydroxy-2-methylpropyl}oxy)-7-methoxy-2,3-dihydroimidazo[1,2-c]quinazolin-5-yl]pyridine-3-carboxamide], in assay [1], the inhibition at 0.93 µM came out at 93.2% and the IC50 is < 10 nM. In assay [2], the inhibition at 0.93 µM stood at 81.6%, the IC50 is > 50 nM and the “PI3K beta average IC50/ PI3K alpha average IC50” value turned out to be 8.95.

The inhibition is the drop in the measured response relative to a control, in per cent. As usually defined, the IC50 is the concentration at which inhibition is half-maximal.
